Results taken from the NIST ThermoML archive (doi:10.1021/je800110r).
Numbers after ± are expanded uncertainties.

Conditions: 313.14 K, Liquid, Vibrating tube method

CCCCCCCCCC [decane]
Conditions | mass density [kg/m3]
9156 kPa | 722.3 ± 2
9171 kPa | 722.4 ± 2
9194 kPa | 722.3 ± 2
9210 kPa | 722.4 ± 2
9227 kPa | 722.3 ± 2
9245 kPa | 722.2 ± 2
9261 kPa | 722.3 ± 2
9284 kPa | 722.4 ± 2
9300 kPa | 722.4 ± 2
9323 kPa | 722.5 ± 2
9338 kPa | 722.6 ± 2
9358 kPa | 722.5 ± 2
9374 kPa | 722.6 ± 2
9392 kPa | 722.5 ± 2
9410 kPa | 722.6 ± 2
9431 kPa | 722.4 ± 2
9447 kPa | 722.6 ± 2
9463 kPa | 722.7 ± 2
9479 kPa | 722.4 ± 2
9503 kPa | 722.6 ± 2
9522 kPa | 722.6 ± 2
9538 kPa | 722.5 ± 2
9554 kPa | 722.6 ± 2
9574 kPa | 722.7 ± 2
9587 kPa | 722.7 ± 2
9607 kPa | 722.6 ± 2
9627 kPa | 722.6 ± 2
9646 kPa | 722.6 ± 2
9674 kPa | 722.5 ± 2
9694 kPa | 722.8 ± 2
9717 kPa | 722.7 ± 2
9733 kPa | 722.8 ± 2
9747 kPa | 722.7 ± 2
9770 kPa | 722.9 ± 2
9785 kPa | 722.8 ± 2
9807 kPa | 722.8 ± 2
9828 kPa | 722.9 ± 2
9851 kPa | 722.9 ± 2
9869 kPa | 722.8 ± 2
9892 kPa | 722.9 ± 2
9913 kPa | 722.9 ± 2
9930 kPa | 723 ± 2
9945 kPa | 722.9 ± 2
9970 kPa | 722.9 ± 2
9985 kPa | 722.9 ± 2
10007 kPa | 722.8 ± 2
10022 kPa | 723 ± 2
10046 kPa | 723 ± 2
10062 kPa | 723 ± 2
10088 kPa | 723 ± 2
10107 kPa | 723 ± 2
10128 kPa | 723.1 ± 2
10147 kPa | 723.1 ± 2
10166 kPa | 723 ± 2
10182 kPa | 723.1 ± 2
10199 kPa | 723.1 ± 2
10221 kPa | 723.1 ± 2
10234 kPa | 723.2 ± 2
10262 kPa | 723.3 ± 2
10278 kPa | 723.1 ± 2
10295 kPa | 723.2 ± 2
10317 kPa | 723.1 ± 2
10340 kPa | 723.2 ± 2
10361 kPa | 723.2 ± 2
10381 kPa | 723.2 ± 2
10400 kPa | 723.3 ± 2
10421 kPa | 723.3 ± 2
10437 kPa | 723.4 ± 2
10454 kPa | 723.3 ± 2
10483 kPa | 723.4 ± 2
10497 kPa | 723.3 ± 2
10520 kPa | 723.3 ± 2
10540 kPa | 723.4 ± 2
10567 kPa | 723.5 ± 2
10593 kPa | 723.4 ± 2
10616 kPa | 723.5 ± 2
10634 kPa | 723.5 ± 2
10655 kPa | 723.6 ± 2
10673 kPa | 723.6 ± 2
10694 kPa | 723.6 ± 2
10718 kPa | 723.6 ± 2
10739 kPa | 723.6 ± 2
10757 kPa | 723.6 ± 2
10781 kPa | 723.5 ± 2
10805 kPa | 723.6 ± 2
10821 kPa | 723.7 ± 2
10843 kPa | 723.6 ± 2
10861 kPa | 723.7 ± 2
10876 kPa | 723.6 ± 2
10895 kPa | 723.7 ± 2
10916 kPa | 723.7 ± 2
10935 kPa | 723.7 ± 2
10960 kPa | 723.6 ± 2
10988 kPa | 723.7 ± 2
11007 kPa | 723.8 ± 2
11027 kPa | 723.8 ± 2
11049 kPa | 723.8 ± 2
11070 kPa | 723.9 ± 2
11096 kPa | 723.8 ± 2
11115 kPa | 723.9 ± 2
11141 kPa | 723.9 ± 2
11164 kPa | 723.9 ± 2
11184 kPa | 723.9 ± 2
11210 kPa | 723.9 ± 2
11236 kPa | 723.9 ± 2
11260 kPa | 724 ± 2
11286 kPa | 724 ± 2
11306 kPa | 724.1 ± 2
11326 kPa | 724 ± 2
11344 kPa | 724.1 ± 2
11361 kPa | 723.9 ± 2
11385 kPa | 724.2 ± 2
11406 kPa | 724 ± 2
11429 kPa | 724 ± 2
11459 kPa | 724 ± 2
11480 kPa | 724 ± 2
11497 kPa | 724.2 ± 2
11518 kPa | 724.2 ± 2
11549 kPa | 724.3 ± 2
11570 kPa | 724.3 ± 2
11592 kPa | 724.1 ± 2
11609 kPa | 724.3 ± 2
11631 kPa | 724.3 ± 2
11661 kPa | 724.2 ± 2
11689 kPa | 724.3 ± 2
11711 kPa | 724.5 ± 2
11743 kPa | 724.4 ± 2
11765 kPa | 724.3 ± 2
11794 kPa | 724.4 ± 2
11820 kPa | 724.4 ± 2
11852 kPa | 724.4 ± 2
11886 kPa | 724.5 ± 2
11915 kPa | 724.5 ± 2
11945 kPa | 724.4 ± 2
11976 kPa | 724.6 ± 2
12006 kPa | 724.5 ± 2
12029 kPa | 724.6 ± 2
12060 kPa | 724.5 ± 2
12090 kPa | 724.6 ± 2
12118 kPa | 724.7 ± 2
12149 kPa | 724.5 ± 2
12173 kPa | 724.7 ± 2
12197 kPa | 724.7 ± 2
12233 kPa | 724.6 ± 2
12257 kPa | 724.7 ± 2
12287 kPa | 724.9 ± 2
12324 kPa | 724.8 ± 2
12341 kPa | 724.8 ± 2
12365 kPa | 724.9 ± 2
12382 kPa | 724.9 ± 2
12406 kPa | 724.9 ± 2
12434 kPa | 724.8 ± 2
12459 kPa | 724.9 ± 2
12483 kPa | 724.9 ± 2
12501 kPa | 724.9 ± 2
12523 kPa | 725 ± 2
12552 kPa | 725 ± 2
12574 kPa | 725 ± 2
12596 kPa | 724.9 ± 2
12624 kPa | 724.9 ± 2
12650 kPa | 725 ± 2
12672 kPa | 725.1 ± 2
12695 kPa | 725.2 ± 2
12721 kPa | 725.1 ± 2
12751 kPa | 725.1 ± 2
12774 kPa | 725.1 ± 2
12807 kPa | 725.3 ± 2
12834 kPa | 725.2 ± 2
12857 kPa | 725.2 ± 2
12882 kPa | 725.3 ± 2
12901 kPa | 725.2 ± 2
12923 kPa | 725.3 ± 2
12948 kPa | 725.2 ± 2
12973 kPa | 725.3 ± 2
12992 kPa | 725.3 ± 2
13015 kPa | 725.3 ± 2
13037 kPa | 725.5 ± 2
13059 kPa | 725.3 ± 2
13081 kPa | 725.3 ± 2
13107 kPa | 725.5 ± 2
13127 kPa | 725.5 ± 2
13151 kPa | 725.5 ± 2
13171 kPa | 725.4 ± 2
13187 kPa | 725.6 ± 2
13210 kPa | 725.5 ± 2
13230 kPa | 725.5 ± 2
13253 kPa | 725.4 ± 2
13276 kPa | 725.5 ± 2
13309 kPa | 725.5 ± 2
13333 kPa | 725.4 ± 2
13357 kPa | 725.5 ± 2
13384 kPa | 725.7 ± 2
13405 kPa | 725.6 ± 2
13434 kPa | 725.7 ± 2
13451 kPa | 725.8 ± 2
13475 kPa | 725.6 ± 2
13499 kPa | 725.8 ± 2
13520 kPa | 725.7 ± 2
13538 kPa | 725.7 ± 2
13562 kPa | 725.7 ± 2
13583 kPa | 725.7 ± 2
13607 kPa | 725.8 ± 2
13636 kPa | 725.8 ± 2
13654 kPa | 725.8 ± 2
13682 kPa | 726 ± 2
13714 kPa | 725.9 ± 2
13743 kPa | 725.9 ± 2
13768 kPa | 725.9 ± 2
13797 kPa | 725.9 ± 2
13830 kPa | 725.9 ± 2
13848 kPa | 726 ± 2
13878 kPa | 726 ± 2
13900 kPa | 726 ± 2
13932 kPa | 726 ± 2
13970 kPa | 726.1 ± 2
13987 kPa | 726.1 ± 2
14008 kPa | 726.2 ± 2
14029 kPa | 726.1 ± 2
14050 kPa | 726.2 ± 2
14071 kPa | 726.1 ± 2
14091 kPa | 726.2 ± 2
14119 kPa | 726.1 ± 2
14140 kPa | 726.1 ± 2
14168 kPa | 726.2 ± 2
14196 kPa | 726.3 ± 2
14224 kPa | 726.2 ± 2
14253 kPa | 726.3 ± 2
14277 kPa | 726.4 ± 2
14302 kPa | 726.3 ± 2
14328 kPa | 726.3 ± 2
14353 kPa | 726.4 ± 2
14371 kPa | 726.3 ± 2
14405 kPa | 726.4 ± 2
14426 kPa | 726.3 ± 2
14449 kPa | 726.4 ± 2
14485 kPa | 726.5 ± 2
14511 kPa | 726.5 ± 2
14540 kPa | 726.5 ± 2
14570 kPa | 726.5 ± 2
14600 kPa | 726.4 ± 2
14630 kPa | 726.5 ± 2
14663 kPa | 726.6 ± 2
14693 kPa | 726.7 ± 2
14719 kPa | 726.7 ± 2
14750 kPa | 726.6 ± 2
14780 kPa | 726.7 ± 2
14811 kPa | 726.8 ± 2
14830 kPa | 726.7 ± 2
14861 kPa | 726.7 ± 2
14892 kPa | 726.8 ± 2
14919 kPa | 726.8 ± 2
14944 kPa | 726.8 ± 2
14964 kPa | 726.8 ± 2
14984 kPa | 726.8 ± 2
15008 kPa | 726.8 ± 2
15036 kPa | 726.9 ± 2
15068 kPa | 726.9 ± 2
15100 kPa | 727 ± 2
15125 kPa | 727 ± 2
15154 kPa | 726.9 ± 2
15190 kPa | 727 ± 2
15219 kPa | 727 ± 2
15248 kPa | 727 ± 2
15273 kPa | 727.1 ± 2
15314 kPa | 727.1 ± 2
15343 kPa | 727.2 ± 2
15372 kPa | 727.2 ± 2
15397 kPa | 727 ± 2
15423 kPa | 727.1 ± 2
15441 kPa | 727.2 ± 2
15467 kPa | 727.3 ± 2
15485 kPa | 727.2 ± 2
15504 kPa | 727.2 ± 2
15526 kPa | 727.2 ± 2
